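Where inhibition never reached the appropriate level, the endpoint shown equals the highest concentration tested. Otherwise, values were interpolated linearly from a five-concentration, 48-hour dose response in 96-well plates. GI50 is the concentration that inhibits growth by half. TGI denotes the concentration required for complete inhibition of growth.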
Assays:
Assay in all cases: NCI tumour cell line growth inhibition, 48 h
U251 CNS = tested on: U251 CNS
SK-OV-3 ovarian = tested on: SK-OV-3 ovarian
UACC-62 melanoma = tested on: UACC-62 melanoma
SW-620 colon = tested on: SW-620 colon
SF-295 CNS = tested on: SF-295 CNS
HCT-15 colon = tested on: HCT-15 colon
HCC-2998 colon = tested on: HCC-2998 colon
OVCAR-5 ovarian = tested on: OVCAR-5 ovarian
UO-31 renal = tested on: UO-31 renal
MDA-MB-435 = tested on: MDA-MB-435
SR leukemia = tested on: SR leukemia
RPMI-8226 leukemia = tested on: RPMI-8226 leukemia
PC-3 prostate = tested on: PC-3 prostate
HL-60(TB) leukemia = tested on: HL-60(TB) leukemia
SF-268 CNS = tested on: SF-268 CNS
TK-10 renal = tested on: TK-10 renal
CAKI-1 renal = tested on: CAKI-1 renal
UACC-257 melanoma = tested on: UACC-257 melanoma
786-0 renal = tested on: 786-0 renal
T-47D breast = tested on: T-47D breast
OVCAR-4 ovarian = tested on: OVCAR-4 ovarian
NCI-H23 lung = tested on: NCI-H23 lung
ACHN renal = tested on: ACHN renal
NCI/ADR-RES ovarian = tested on: NCI/ADR-RES ovarian
SK-MEL-5 melanoma = tested on: SK-MEL-5 melanoma
HCT-116 colon = tested on: HCT-116 colon
SK-MEL-2 melanoma = tested on: SK-MEL-2 melanoma
HS 578T breast = tested on: HS 578T breast
SNB-19 CNS = tested on: SNB-19 CNS
K-562 leukemia = tested on: K-562 leukemia
COLO 205 colon = tested on: COLO 205 colon
EKVX NSCLC = tested on: EKVX NSCLC
SK-MEL-28 melanoma = tested on: SK-MEL-28 melanoma
BT-549 breast = tested on: BT-549 breast
OVCAR-3 ovarian = tested on: OVCAR-3 ovarian
A498 renal = tested on: A498 renal
CCRF-CEM leukemia = tested on: CCRF-CEM leukemia
LOX IMVI melanoma = tested on: LOX IMVI melanoma
SNB-75 CNS = tested on: SNB-75 CNS
HT29 colon = tested on: HT29 colon
NCI-H522 lung = tested on: NCI-H522 lung
M14 melanoma = tested on: M14 melanoma
SF-539 CNS = tested on: SF-539 CNS
OVCAR-8 ovarian = tested on: OVCAR-8 ovarian
HOP-92 NSCLC = tested on: HOP-92 NSCLC
NCI-H226 lung = tested on: NCI-H226 lung
MOLT-4 leukemia = tested on: MOLT-4 leukemia
RXF 393 renal = tested on: RXF 393 renal
MALME-3M melanoma = tested on: MALME-3M melanoma
DU-145 prostate = tested on: DU-145 prostate
MDA-MB-231 breast = tested on: MDA-MB-231 breast
SN12C renal = tested on: SN12C renal
HOP-62 NSCLC = tested on: HOP-62 NSCLC
KM12 colon = tested on: KM12 colon
A549 NSCLC = tested on: A549 NSCLC
MCF7 breast = tested on: MCF7 breast
NCI-H460 lung = tested on: NCI-H460 lung
IGROV1 ovarian = tested on: IGROV1 ovarian

c1cc[n+](C2c3ccccc3C([n+]3ccccc3)c3ccccc32)cc1 (stereo unspecified)
GI50 (U251 CNS): 3.14 µM
TGI (U251 CNS): > 90.8 µM
GI50 (SK-OV-3 ovarian): 52.5 µM
TGI (SK-OV-3 ovarian): > 100 µM
GI50 (UACC-62 melanoma): 11.3 µM
TGI (UACC-62 melanoma): 28.7 µM
GI50 (SW-620 colon): 8.52 µM
TGI (SW-620 colon): > 100 µM
GI50 (SF-295 CNS): 4.2 µM
TGI (SF-295 CNS): 80.9 µM
GI50 (HCT-15 colon): > 100 µM
TGI (HCT-15 colon): > 100 µM
GI50 (HCC-2998 colon): 10.3 µM
TGI (HCC-2998 colon): 31.8 µM
GI50 (OVCAR-5 ovarian): 26.7 µM
TGI (OVCAR-5 ovarian): > 100 µM
GI50 (UO-31 renal): > 100 µM
TGI (UO-31 renal): > 100 µM
GI50 (MDA-MB-435): 5.89 µM
TGI (MDA-MB-435): 23 µM
GI50 (SR leukemia): 7.64 µM
TGI (SR leukemia): > 100 µM
GI50 (RPMI-8226 leukemia): 6.96 µM
TGI (RPMI-8226 leukemia): > 86.4 µM
GI50 (PC-3 prostate): 4.8 µM
TGI (PC-3 prostate): > 100 µM
GI50 (HL-60(TB) leukemia): 22.6 µM
TGI (HL-60(TB) leukemia): > 100 µM
GI50 (SF-268 CNS): 2.13 µM
TGI (SF-268 CNS): 11.8 µM
GI50 (TK-10 renal): 19.2 µM
TGI (TK-10 renal): > 100 µM
GI50 (CAKI-1 renal): > 100 µM
TGI (CAKI-1 renal): > 100 µM
GI50 (UACC-257 melanoma): 5.93 µM
TGI (UACC-257 melanoma): 37 µM
GI50 (786-0 renal): 15.9 µM
TGI (786-0 renal): > 100 µM
GI50 (T-47D breast): 10.1 µM
TGI (T-47D breast): 79.6 µM
GI50 (OVCAR-4 ovarian): 18.4 µM
TGI (OVCAR-4 ovarian): > 100 µM
GI50 (NCI-H23 lung): 5.11 µM
TGI (NCI-H23 lung): > 52.4 µM
GI50 (ACHN renal): > 100 µM
TGI (ACHN renal): > 100 µM
GI50 (NCI/ADR-RES ovarian): > 100 µM
TGI (NCI/ADR-RES ovarian): > 100 µM
GI50 (SK-MEL-5 melanoma): 7.91 µM
TGI (SK-MEL-5 melanoma): 23.2 µM
GI50 (HCT-116 colon): 10.7 µM
TGI (HCT-116 colon): > 100 µM
GI50 (SK-MEL-2 melanoma): 15 µM
TGI (SK-MEL-2 melanoma): > 66.4 µM
GI50 (HS 578T breast): 4.4 µM
TGI (HS 578T breast): 27 µM
GI50 (SNB-19 CNS): 4.13 µM
TGI (SNB-19 CNS): 42.8 µM
GI50 (K-562 leukemia): 12 µM
TGI (K-562 leukemia): > 100 µM
GI50 (COLO 205 colon): 4.24 µM
TGI (COLO 205 colon): 22.2 µM
GI50 (EKVX NSCLC): 3.39 µM
TGI (EKVX NSCLC): > 100 µM
GI50 (SK-MEL-28 melanoma): 5.92 µM
TGI (SK-MEL-28 melanoma): > 44.5 µM
GI50 (BT-549 breast): 3.64 µM
TGI (BT-549 breast): 14.6 µM
GI50 (OVCAR-3 ovarian): 14.1 µM
TGI (OVCAR-3 ovarian): > 77 µM
GI50 (A498 renal): 15.8 µM
TGI (A498 renal): 73.7 µM
GI50 (CCRF-CEM leukemia): 10.7 µM
TGI (CCRF-CEM leukemia): > 100 µM
GI50 (LOX IMVI melanoma): 15.8 µM
TGI (LOX IMVI melanoma): > 100 µM
GI50 (SNB-75 CNS): 1.13 µM
TGI (SNB-75 CNS): 3.15 µM
GI50 (HT29 colon): 12.6 µM
TGI (HT29 colon): > 75.5 µM
GI50 (NCI-H522 lung): 4.67 µM
TGI (NCI-H522 lung): 30.7 µM
GI50 (M14 melanoma): 41 µM
TGI (M14 melanoma): > 100 µM
GI50 (SF-539 CNS): 2.59 µM
TGI (SF-539 CNS): 17.3 µM
GI50 (OVCAR-8 ovarian): 6.23 µM
TGI (OVCAR-8 ovarian): > 100 µM
GI50 (HOP-92 NSCLC): 4.45 µM
TGI (HOP-92 NSCLC): 50.9 µM
GI50 (NCI-H226 lung): 17.9 µM
TGI (NCI-H226 lung): > 100 µM
GI50 (MOLT-4 leukemia): 25.8 µM
TGI (MOLT-4 leukemia): > 100 µM
GI50 (RXF 393 renal): 19.5 µM
TGI (RXF 393 renal): 86.2 µM
GI50 (MALME-3M melanoma): 3.9 µM
TGI (MALME-3M melanoma): 18.6 µM
GI50 (DU-145 prostate): 14.2 µM
TGI (DU-145 prostate): 43.8 µM
GI50 (MDA-MB-231 breast): 21.6 µM
TGI (MDA-MB-231 breast): > 100 µM
GI50 (SN12C renal): 3.39 µM
TGI (SN12C renal): 25.4 µM
GI50 (HOP-62 NSCLC): 5.77 µM
TGI (HOP-62 NSCLC): 71.1 µM
GI50 (KM12 colon): 6.43 µM
TGI (KM12 colon): 50.1 µM
GI50 (A549 NSCLC): 26.6 µM
TGI (A549 NSCLC): > 100 µM
GI50 (MCF7 breast): 11.9 µM
TGI (MCF7 breast): > 100 µM
GI50 (NCI-H460 lung): 21.1 µM
TGI (NCI-H460 lung): > 89.4 µM
GI50 (IGROV1 ovarian): 1.96 µM
TGI (IGROV1 ovarian): > 82.8 µM
